In PMC3075623 (2011):

Molecular target: T1, ABL2 (ABL-related gene, ARG) (Homo sapiens, UniProt P42684)
T1 sequence (P42684 279-546): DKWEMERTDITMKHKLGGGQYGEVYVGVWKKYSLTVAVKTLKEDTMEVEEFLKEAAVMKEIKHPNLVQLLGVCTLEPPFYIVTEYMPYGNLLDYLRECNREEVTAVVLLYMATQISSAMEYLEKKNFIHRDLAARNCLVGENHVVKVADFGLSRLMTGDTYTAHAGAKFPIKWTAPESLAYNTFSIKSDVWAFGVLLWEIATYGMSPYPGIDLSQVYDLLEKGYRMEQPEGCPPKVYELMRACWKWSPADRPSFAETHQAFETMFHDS
Test: cocrystal structure
Type: binding

Nc1nc(Nc2ccc(S(N)(=O)=O)cc2)nn1C(=S)Nc1c(F)cccc1F [compound 2, 5-amino-3-((4-(aminosulfonyl)phenyl)amino)-N-(2,6-difluorophenyl)-1H-1,2,4-triazole-1-carbothioamide]
cocrystal structure: The ligand is bound to the protein by hydrogen bonds to the backbone carbonyls of residues Glu362 and Met364
